ChEMBL document CHEMBL4840371 (Bioorg Med Chem, 2021)

Assays:
[1] = Inhibition of Escherichia coli recombinant his-tagged DHDPS using (S)-aspartate-semialdehyde as a substrate preincubated for 12 mins followed by substrate addition by UV-Vis spectrophotometer based coupled DHDPS-DHDPR assay
HepG2 = experiment: Cytotoxicity against human HepG2 cells assessed as reduction in cell viability measured after 48 hrs by MTT assay; assay type: cell-based; conditions: HepG2, 48 h
HEK293 = experiment: Cytotoxicity against HEK293 cells assessed as reduction in cell viability measured after 48 hrs by MTT assay; assay type: cell-based; conditions: Homo sapiens, HEK293, 48 h
[2] = Aqueous solubility of the compound; assay type: physicochemical; conditions: buffer
[3] = Inhibition of Campylobacter jejuni DHDPS using ASA as a substrate in presence of NADPH by DHDPS-DHDPR coupled assay

O=C(O)CN1C(=O)S/C(=C\c2ccc3ccccc3c2)C1=O
IC50 [1]: 76 µM
EC50 (HepG2): 200 µM
EC50 (HEK293): 200 µM

CCOC(=O)CSC1=NC(=O)/C(=C/c2ccc(OC)cc2)S1
solubility [2]: Insoluble

O=C(O)CN1C(=O)S/C(=C\c2cccnc2)C1=O
IC50 [1]: 138 µM

COc1ccc(/C=C2\SC(=S)N(CC(=O)O)C2=O)cc1
IC50 [1]: 540 µM
EC50 (HepG2): 200 µM
EC50 (HEK293): 200 µM

O=C(O)CN1C(=O)S/C(=C\c2ccc(OCc3ccccc3)cc2)C1=O
IC50 [1]: 71 µM
EC50 (HepG2): 200 µM
EC50 (HEK293): 200 µM

COc1cccc(/C=C2\SC(=O)N(CC(=O)O)C2=O)c1
IC50 [1]: 110 µM

COc1ccc(/C=C2\NC(=S)NC2=O)cc1
IC50 [1]: 323 µM

COc1ccc(/C=C2\SC(=S)NC2=O)cc1
IC50 [1]: > 500 µM

Cc1ccc(/C=C2\SC(=O)N(CC(=O)O)C2=O)cc1
IC50 [1]: 80 µM

COc1ccc(/C=C2\SC(=O)N(CC(=O)O)C2=O)cc1
IC50 [1]: 47 µM
EC50 (HepG2): > 500 µM
EC50 (HEK293): > 500 µM

CN(C)c1ccc(/C=C2\SC(=O)N(CC(=O)O)C2=O)cc1
IC50 [1]: > 500 µM

COc1ccc(/C=C2\NC(=O)NC2=O)cc1
IC50 [1]: 124 µM

COc1ccc(/C=C2\SC(=O)N(CC(N)=O)C2=O)cc1
solubility ([2]; read-out: solubility): < 31 µM

NCCCC[C@@](N)(CC[C@](N)(CCCCN)C(=O)O)C(=O)O
Ki [3]: 0.14 µM

COc1ccc(/C=C2\SC(=O)N(CC(=O)O)C2=O)cc1OC
IC50 [1]: 116 µM

CCOc1ccc(/C=C2\SC(=O)N(CC(=O)O)C2=O)cc1
IC50 [1]: 72 µM

O=C(O)CN1C(=O)S/C(=C\c2ccccc2Cl)C1=O
IC50 [1]: 137 µM

O=C(O)CN1C(=O)S/C(=C\c2ccc(C(=O)O)cc2)C1=O
IC50 [1]: 70 µM

O=C(O)CN1C(=O)S/C(=C\c2cccc3ccccc23)C1=O
IC50 [1]: 97 µM
EC50 (HepG2): > 500 µM
EC50 (HEK293): > 500 µM

O=C(O)CN1C(=O)S/C(=C\c2ccccn2)C1=O
IC50 [1]: 80 µM

COc1ccc(/C=C2\SC(=O)N(CC#N)C2=O)cc1
solubility ([2]; read-out: solubility): < 250 µM

COc1ccc(/C=C2\SC(=O)N(CCCC(=O)O)C2=O)cc1
IC50 [1]: 67 µM

COc1ccc(/C=C2\NC(=O)N(CC(=O)O)C2=O)cc1
IC50 [1]: 66 µM
EC50 (HepG2): > 500 µM
EC50 (HEK293): > 500 µM

O=C(O)CN1C(=O)S/C(=C\c2ccccc2)C1=O
IC50 [1]: 80 µM

O=C(O)CN1C(=O)S/C(=C\c2ccc(F)cc2)C1=O
IC50 [1]: 92 µM

O=C(O)CN1C(=O)S/C(=C\c2ccc(OC(F)(F)F)cc2)C1=O
IC50 [1]: 98 µM

N#Cc1ccc(/C=C2\SC(=O)N(CC(=O)O)C2=O)cc1
IC50 [1]: 80 µM

O=C(O)CN1C(=O)S/C(=C\c2ccc(O)cc2O)C1=O
IC50 [1]: 162 µM

COc1ccc(CC2SC(=O)N(CC(=O)O)C2=O)cc1 (stereo not given)
IC50 [1]: > 500 µM

CC(=O)Nc1ccc(/C=C2\SC(=O)N(CC(=O)O)C2=O)cc1
IC50 [1]: 68 µM

O=C(O)CN1C(=O)S/C(=C\c2c[nH]cn2)C1=O
IC50 [1]: 94 µM

COc1ccc(/C=C2\SC(=O)N(Cc3nnn[nH]3)C2=O)cc1
IC50 [1]: 89 µM

CSc1ccc(/C=C2\SC(=O)N(CC(=O)O)C2=O)cc1
IC50 [1]: 125 µM

O=C(O)CN1C(=O)S/C(=C\c2ccc(Br)cc2)C1=O
IC50 [1]: 74 µM

O=C(O)CN1C(=O)S/C(=C\c2ccc(O)c(Cl)c2)C1=O
IC50 [1]: 316 µM

O=C(O)CN1C(=O)S/C(=C\c2ccncc2)C1=O
IC50 [1]: 90 µM

O=C(O)CN1C(=O)S/C(=C\c2ccc3ccccc3n2)C1=O
IC50 [1]: 110 µM

O=C(O)CN1C(=O)S/C(=C\c2ccc(C(F)(F)F)cc2)C1=O
IC50 [1]: 122 µM

COc1ccc(/C=C2\SC(=O)N(CCC(=O)O)C2=O)cc1
IC50 [1]: > 250 µM

O=C(O)CN1C(=O)S/C(=C\c2ccc(O)cc2)C1=O
IC50 [1]: 103 µM

COc1ccc(/C=C2\SC(=O)N(CC(=O)O)C2=O)cn1
IC50 [1]: 46 µM
EC50 (HepG2): > 500 µM
EC50 (HEK293): > 500 µM

O=C(O)CN1C(=O)S/C(=C\c2cccc(Cl)c2)C1=O
IC50 [1]: 121 µM

O=C(O)CN1C(=O)S/C(=C\c2cccs2)C1=O
IC50 [1]: 72 µM
EC50 (HepG2): > 500 µM
EC50 (HEK293): > 500 µM

COc1cccc(/C=C2\SC(=O)N(CC(=O)O)C2=O)c1OC
IC50 [1]: 108 µM

Nc1ccc(/C=C2\SC(=O)N(CC(=O)O)C2=O)cc1
IC50 [1]: 153 µM

COc1ccc(/C=C2\NC(=S)N(CC(=O)O)C2=O)cc1
IC50 [1]: 222 µM
EC50 (HepG2): > 500 µM
EC50 (HEK293): > 500 µM

COc1ccccc1/C=C1\SC(=O)N(CC(=O)O)C1=O
IC50 [1]: 71 µM

O=C(O)CN1C(=O)S/C(=C\c2ccc(Cl)cc2)C1=O
IC50 [1]: 84 µM

O=C(O)CN1C(=O)S/C(=C\c2ccsc2)C1=O
IC50 [1]: 87 µM
EC50 (HepG2): > 500 µM
EC50 (HEK293): > 500 µM

O=C(O)CN1C(=O)S/C(=C\c2ccc(=O)[nH]c2)C1=O
IC50 [1]: 59 µM

COc1ccc(/C=C2\SC(=N)NC2=O)cc1
IC50 [1]: 156 µM

COc1ccc(/C=C2\SC(=O)NC2=O)cc1
IC50 [1]: 71 µM
EC50 (HepG2): 200 µM
EC50 (HEK293): 172 µM

COc1ccc(C=C2SC(=O)N(CC(=O)O)C2=O)cc1 (mixture of isomers)
IC50 [1]: 39 µM
